Data taken from patent US20210299079A1, “MONOMETHYL FUMARATE-CARRIER CONJUGATES AND METHODS OF THEIR USE” (Flagship Pioneering Innovations V, Inc., priority 2018, published 2021).
Structures can show the parent of a compound that is named as a salt. Values belong to the molecule of their own block, whether it stands above or below them.

Tests used:
IL-8 = test: Neutrophil Chemokine Production Assay: IL-8; assay type: cell-based; settings: human neutrophils, 12 h
Method: (§1) A volume 25 mL of human blood was layered over 15 mL of Histopaque®-1077 and centrifuged at 500 g, R^T, for 30 min with no break applied to the centrifuge. The PBMC band and Histopaque®-1077 layer were removed leaving behind the bottom red layer which was mixed with 40 mL of 1× red blood cell (RBC) lysis buffer (Sigma-Aldrich) was and split into two 50 mL tubes. The volume for both fractions was brought to 50 mL with RBC lysis buffer, mixed by inversion, and then incubated at RT for 10 min. Solutions were centrifuged at 250 g, for 10 min at RT and the supernatant liquids removed. The reddish pellets were re-suspended in 1 mL of RBC lysis buffer and combined. The cell suspension was incubated for 5 min at RT in RBC lysis buffer. After incubation 45 mL of Hanks Balanced Salt Solution with no calcium, magnesium or phenol red (HBSS—) was added, the cell suspension was spun (250 g for 10 min at RT), and supernatant liquids were removed. The white pellet was re-suspended in 1 mL of HBSS—, and cell counts were determined. The neutrophil cell suspension was brought to a concentration of 1.11e6 cells/mL in RPMI complete (Sigma-Aldrich), and 180 μL of cell suspension was transferred to all wells within a sterile 96-well tissue culture treated plate resulting in 2.0×10^5 cells/well. […] After incubation, 10 μL of 2 μg/mL LPS solution in RPMI complete was added to each well except for control wells, which received an additional 10 μL of media. Cells were incubated for 12 h (37° C., 5% CO2), after which plates were centrifuged at 250 g, RT, for 5 min and supernatant liquids were obtained and stored at −80° C. until analyzed via Luminex® Multiplex Assay for various chemokines and cytokines. Three data points were acquired from two different blood donors and averaged.

MIP-1α = test: Neutrophil Chemokine Production Assay: MIP-1α; assay type: cell-based; settings: human neutrophils, 12 h
Method: as §1

MIP-1β = test: Neutrophil Chemokine Production Assay: MIP-1β; assay type: cell-based; settings: human neutrophils, 12 h
Method: as §1

AhR = molecular target: T1, AhR (Homo sapiens, UniProt P35869); test: AhR Activation in Caco-2 Cells Through CYP1A1 mRNA Expression; settings: overnight
T1 sequence (P35869 11-848): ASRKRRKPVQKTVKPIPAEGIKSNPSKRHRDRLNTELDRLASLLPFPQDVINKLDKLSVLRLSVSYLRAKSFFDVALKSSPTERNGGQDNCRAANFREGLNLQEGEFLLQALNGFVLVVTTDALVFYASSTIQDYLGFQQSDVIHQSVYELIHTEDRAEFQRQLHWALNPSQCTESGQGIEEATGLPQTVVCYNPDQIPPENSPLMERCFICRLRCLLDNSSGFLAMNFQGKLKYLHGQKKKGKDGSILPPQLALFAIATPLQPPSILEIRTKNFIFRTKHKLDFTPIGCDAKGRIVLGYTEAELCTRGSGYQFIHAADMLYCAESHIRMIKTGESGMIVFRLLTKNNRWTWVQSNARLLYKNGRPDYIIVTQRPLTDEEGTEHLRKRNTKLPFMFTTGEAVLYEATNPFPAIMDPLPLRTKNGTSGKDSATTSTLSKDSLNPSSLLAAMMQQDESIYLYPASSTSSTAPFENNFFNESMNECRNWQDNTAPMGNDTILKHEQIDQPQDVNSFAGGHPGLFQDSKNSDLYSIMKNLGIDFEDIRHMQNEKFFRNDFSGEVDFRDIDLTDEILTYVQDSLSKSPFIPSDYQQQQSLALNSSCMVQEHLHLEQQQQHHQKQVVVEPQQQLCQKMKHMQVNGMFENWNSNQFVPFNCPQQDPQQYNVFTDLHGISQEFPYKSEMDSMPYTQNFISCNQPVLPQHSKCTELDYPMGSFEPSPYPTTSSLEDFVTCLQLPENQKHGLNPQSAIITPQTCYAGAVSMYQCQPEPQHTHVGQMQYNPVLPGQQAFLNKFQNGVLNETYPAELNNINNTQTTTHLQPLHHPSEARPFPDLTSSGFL
Method: Caco-2 cells from American Type Culture Collection (ATCC) were plated in a sterile tissue culture treated 96-well plate (ThermoFisher) at 8.0×10^5 cells per well, and grown overnight at 37° C., 5% CO2 in DMEM complete (Gibco) in order to achieve confluence. After the incubation medium was aspirated off of the Caco-2 monolayers, tissues were then washed with 200 μL of warmed PBS solution, and subsequently 190 μL of pre-warmed growth medium was added to each well. Compounds of interest were diluted at a 20× concentration in growth medium containing 2% DMSO, and 10 μL of compound solutions were added to respective wells in triplicate. Compounds where incubated overnight at 37° C., 5% CO2. 2-(1′H-indole-3′-carbonyl)-thiazole-4-carboxylic acid methyl ester (ITE) was used as the positive control for AhR activation at 1 and 100 μM concentrations. At the end of the incubation, medium was aspirated off of the Caco-2 cells, and washed with 100 μL of cold PBS solution. RNA was extracted via the TaqMan™ Gene Expression Cells-to-CT™ Kit (ThermoFisher) according to the manufacturer's protocol. The QuantStudio 6 Flex (Applied Biosciences) was used to analyze mRNA levels of CYP1A1 using GAPDH as the endogenous control. TaqMan™ probe sets for both genes were acquired from ThermoFisher. Samples were run in triplicate and data was analyzed using the QuantStudio software and reported as linear (Table 6) and log 2(ΔΔCT) values. Statistical analysis was performed using a two-tailed t-test comparing CYP1A1 levels in the presence of each individual compound to the vehicle negative control.

Caco-2 colonocytes = test: Human Caco-2 Barrier Integrity Assay, Study 1; assay type: cell-based; settings: Caco-2, + cytokines (TNFα, IFNγ, IL-1β), 48 hours
Method: Caco-2 colonocytes were maintained at 37° C. and 5% CO2 in Dulbecco's Modified Eagle Medium (DMEM) and supplemented with 10% FBS, 1% NEAA, 1% penicillin-streptomycin. At 70-80% confluency, cells were trypsinized and seeded in 0.4 cm^2 transwell collagen I coated membranes with supplemented DMEM in both apical and basolateral compartments. […] After 48 hours, TEER readings were taken again and viability was measured by CellTiter 96® AQueous One Solution Cell Proliferation Assay (Promega).

naïve CD4+ T cells = test: Human Regulatory T Cell Differentiation Assay; assay type: cell-based; settings: 6 days; for Treg induction % DMSO: TGF-β; for Cell viability % DMSO: viability dye
Method: Peripheral blood mononuclear cells (PBMCs) from whole blood donated by health volunteers were separated by Ficoll-Paque gradient centrifugation and naïve CD4^+ T cells were subsequently isolated using magnet beads (EasySep™ Human Naïve CD4^+ T Cell Isolation Kit, Cambridge, Mass.). For regulatory T cell (Treg) differentiation assay, naïve CD4^+ T cells were cultured (1-10×10^4 cells) in CTS OpTmizer medium for 6 days and stimulated with 5 ng/ml TGF-β, 100 U/ml IL-2, and ImmunoCult™ Human […] T Cell Activator; Stemcell #10990) with/without our Compounds. Cell viability was determined using a viability dye (eBioscience Fixable Viability Dye eFluor 780: ThermoFisher 65-0865-14) at 1:500 dilution. The cells were gated for Treg, defined as Live, CD11c^−, CD14^−, CD19^−, CD8^−, CD4^+, CD3^+, CD25^+, FOXP3^+. Percent (%) Tregs were calculated as percentage of CD4^+, CD25^+, FOXP3^+ cells over total CD4^+ T cells. Statistical analysis was performed with GraphPad Prism Software Using One-Way ANOVA.

[1] = Stability of conjugates in Simulated Gastric Fluid (SGF); assay type: in vitro ADME; settings: SGF pH 1.6 with pepsin, 37° C., 1 μM compound
In short: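 Compound at 1 μM (from 1 mM DMSO stock) in pH 1.6 NaCl medium with FaSSIF powder and 0.1 mg/mL pepsin, mixed at 37° C. Aliquots quenched with equal volume acetonitrile at T0 and regular intervals; LC/MS gives degradation rate.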

[2] = Stability of conjugates in Simulated Intestinal Fluid (SIF); assay type: in vitro ADME; settings: SIF pH 6.7 with pancreatin, 37° C., 1 μM compound
In short: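 Compounds at 1 μM in fresh simulated intestinal fluid: FaSSIF powder in pH 6.7 phosphate buffer with pancreatin. Agitated at 37 °C; aliquots taken at T0 and regular intervals, quenched with 1 volume acetonitrile. Degradation rates determined by LC/MS.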

[3] = In vitro Colonic Material Stability Assay; assay type: in vitro ADME; settings: colonic material slurry in YCFAC media, anaerobic, 1 or 10 μM
In short: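 Anaerobically, a colonic material slurry (15% w/v) was inoculated into YCFAC or other suitable media. Compounds were added at 1 or 10 μM final. Samples taken at 0–2880 min were quenched with acetonitrile containing internal standard and analysed by LC/MS.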

[4] = In Vitro Biotransformation and Detection of Monomethyl Fumarate Assay; assay type: in vitro ADME; settings: FaSSIF with pancreatin pH 6.5, 100 μM compound, 0 h and 2 h, UHPLC-MSMS
Method: Stock solution of compound 2 was prepared at 10 mM in DMSO. FaSSIF was made by mixing sodium taurocholate (3.0 mM) Lecithin (0.75 mM), and pancreatin (10 mg/mL) in prepared solution of sodium phosphate monobasic (28.4 mM), sodium hydroxide (8.7 mM), sodium chloride (105.9 mM), pH 6.5. Compound 2, was added to FaSSIF to final concentration of 100 μM. Release of monomethyl fumaric acid (MMF) was monitored via UHPLC-MSMS and comparing the retention time and corresponding fragmentation of released MMF to retention time and fragmentation of a neat solution of MMF that was analyzed separately with the same method described below. Release of MMF was measured at 0 h and 2 h time points. At both time points samples were centrifuged at 14000 rpm for 10 minutes at 4° C. Supernatants were then transferred to HPLC vials and analyzed immediately. The results of this assay are illustrated in FIG. 1.

[5] = male, Sprague Dawley, rat, in vivo, po
Method: The amount of compound dosed was normalized to provide approximately equimolar amounts of monomethylfumarate. Approximately 150 μL whole blood samples were collected at 15 and 30 min; and 1, 2, 4, 8, and 24 h post-dosing from the jugular or tail vein. 100 μL of samples were added to K2EDTA tubes pre-filled with 300 μL of 100 mM tiopronin in 100 mM ammonium bicarbonate (pH 9.0). Samples were vortex-mixed for approximately 5 min at ambient temperature in order to trap free fractions of monomethyl fumarate.

SMILES: O=C(O[C@@H]1Cc2c(O)cc(O)cc2O[C@@H]1c1cc(O)c(O)c(O)c1)c1cc(O)c(O)c(O)c1 [epigallocatechin gallate]
% IL-8 (Vehicle + LPS = 100%) (IL-8; Conc. 0.1 μM): − (− = >90% Vehicle)
% IL-8 (Vehicle + LPS = 100%) (IL-8; Conc. 1.0 μM): − (− = >90% Vehicle)
% MIP-1α (Vehicle + LPS = 100%) (MIP-1α; Conc. 0.1 μM): − (− = >90% Vehicle)
% MIP-1α (Vehicle + LPS = 100%) (MIP-1α; Conc. 1.0 μM): − (− = >90% Vehicle)
% MIP-1β (DMSO + LPS = 100%) (MIP-1β; Conc. 0.1 μM): − (− = >90% Vehicle)
% MIP-1β (DMSO + LPS = 100%) (MIP-1β; Conc. 1.0 μM): − (− = >90% Vehicle)
Average CYP1A1 mRNA levels (AhR; Conc. 0.1 μM): − (− = <2-fold Vehicle)
Average CYP1A1 mRNA levels (AhR; Conc. 1.0 μM): − (− = <2-fold Vehicle)
% Change in TEER from DMSO (Caco-2 colonocytes; 100 nM): − (<125%: −)
% Change in TEER from DMSO (Caco-2 colonocytes; 1 μM): − (<125%: −)
Treg induction % DMSO (naïve CD4+ T cells; IL-2, 100 nM): = (90% > <110%: =)
Treg induction % DMSO (naïve CD4+ T cells; IL-2, 1 μM): = (90% > <110%: =)
Cell viability % DMSO (naïve CD4+ T cells; 100 nM): = (90% > <110%: =)
Cell viability % DMSO (naïve CD4+ T cells; 1 μM): = (90% > <110%: =)

Release of monomethyl fumaric acid (MMF) [4]: actively released
SMILES: CCC(=O)O[C@@H]1[C@@H](OC(=O)CC)[C@H](C)O[C@@H](OC(=O)/C=C/C(=O)OC)[C@@H]1OC(=O)CC [Compound 2, Methyl ((2S,3R,4R,5S,6S)-6-methyl-3,4,5-tris(propionyloxy)tetrahydro-2H-pyran-2-yl) fumarate]
Assay 1 (SGF) (% Remaining @ 1 hour) [1]: C (C: >75% of the tested compound remaining)
Assay 2 (SIF) (% @ Remaining 4 hours) [2]: B (B: 25-75% of the tested compound remaining)
Assay 3 (% Remaining at 24 h) [3]: C (C: >75% of the tested compound remaining)

AUClast [5]: 9381 ng·h/mL
Cmax [5]: 17251 ng/mL
Tmax [5]: 15 min
SMILES: COC(=O)/C=C/C(=O)OCCN1C(=O)CCC1=O [Diroximel Fumarate, diroximel fumarate]
